Data set [1] can be described thus: Cytotoxicity against human Hep2 cells after 5 days by CCK8 assay. To be noted: HEp-2 cells.
The test system of data set [2] is Human orthopneumovirus. In words: Antiviral activity against human respiratory syncytial virus A2 infected in po dosed Balb/c mouse assessed as reduction in lung viral load administered once daily pretreated for 1 hr on day 0 followed by viral infection and subsequent compound dosing for 3 days measured after 1 day post last dose by plaque assay. The format is functional, organism-based.

The subject of data set [3] is Human orthopneumovirus. In words: Antiviral activity against human respiratory syncytial virus A2 infected in Balb/c mouse assessed as reduction in lung viral load at 5 mg/kg, po administered once daily pretreated for 1 hr on day 0 followed by viral infection and subsequent compound dosing for 3 days measured after 1 day post last dose by plaque assay. The format is functional.

The nature of data set [4]: in vivo. To be noted: Balb/c, mouse, po, 10 mg/kg.
Description: AUC (0 to infinity) in Balb/c mouse at 10 mg/kg, po administered as single dose via gavage by LC-MS/MS analysis
In data set [5] the test system is Human orthopneumovirus. Kind of data set: Antiviral activity against human respiratory syncytial virus A2 infected in Balb/c mouse assessed as reduction in lung viral load at 15 mg/kg, po administered once daily pretreated for 1 hr on day 0 followed by viral infection and subsequent compound dosing for 3 days measured after 1 day post last dose by plaque assay. The class given is functional.

For data set [6], the system named is Human orthopneumovirus. Kind of data set: Antiviral activity against human respiratory syncytial virus A2 infected in Balb/c mouse assessed as reduction in lung viral load at 50 mg/kg, po administered once daily pretreated for 1 hr on day 0 followed by viral infection and subsequent compound dosing for 3 days measured after 1 day post last dose by plaque assay. The format is functional.

Data set [7] is described as follows: in vivo. Particulars: Balb/c, mouse, po, 10 mg/kg. The source holds these as a separate data set.
Description: Tmax in Balb/c mouse at 10 mg/kg, po administered as single dose via gavage by LC-MS/MS analysis
Data set [8] can be described thus: Half life in Balb/c mouse at 1 mg/kg, iv administered as single bolus dose by LC-MS/MS analysis. To be noted: in vivo.
The nature of data set [9]: Volume of distribution in Balb/c mouse at 1 mg/kg, iv administered as single bolus dose by LC-MS/MS analysis. To be noted: in vivo.
Data set [10] in a line: in vivo. To be noted: Balb/c, mouse, iv, 1 mg/kg.
Description: AUC (0 to infinity) in Balb/c mouse at 1 mg/kg, iv administered as single bolus dose by LC-MS/MS analysis
Data set [11] is described as follows: in vivo. Particulars: Balb/c, mouse, po, 10 mg/kg. This is another data set of the same source.
Description: Cmax in Balb/c mouse at 10 mg/kg, po administered as single dose via gavage by LC-MS/MS analysis
The nature of data set [12]: Clearance in Balb/c mouse at 1 mg/kg, iv administered as single bolus dose by LC-MS/MS analysis. To be noted: in vivo.
The nature of data set [13]: in vivo. To be noted: Balb/c, mouse, po, 10 mg/kg. The source holds these as a separate data set.
Description: Oral bioavailability in Balb/c mouse at 10 mg/kg administered as single dose via gavage by LC-MS/MS analysis

Some results are limits rather than exact numbers.

The text below walks through data of ChEMBL document CHEMBL4138299, “Discovery of 3,3'-Spiro[Azetidine]-2-oxo-indoline Derivatives as Fusion Inhibitors for Treatment of RSV Infection” (ACS Med Chem Lett, 2018).

The CC50 is the concentration at which the toxic effect on the cells reaches its halfway point. Read a high CC50 as lower toxicity to the cells. In turn, `O=C1NC(=O)C2(N1)C(=O)N(Cc1nc3cc(Br)ccc3n1CCCCO)c1ccccc12` (stereo unspecified) came in with a CC50 at 120 h in data set [1] of more than 100 µM. With `CC1(C)C(=O)N(Cc2nc3ccccc3n2CCCCO)c2ccccc21`, the half-maximal cytotoxic concentration (CC50) at 120 h in data set [1] was more than 100 µM. For the compound `O=C1N(Cc2nc3cc(C(F)(F)F)ccc3n2CCCCO)c2ccccc2C12CC2`, the CC50 at 120 h in [1] is more than 100 µM. On the same count and under the same terms, with `O=c1oc2ccccc2n1Cc1nc2ccccc2n1CCCCO` the figure was more than 100 µM; with `CC(C)C(=O)N1CC2(C1)C(=O)N(Cc1nc3cc(Br)ccc3n1CCCCO)c1ccccc12`, more than 100 µM; with `O=C1N(Cc2nc3cc(Cl)ccc3n2CCCCO)c2ccccc2C12CC2`, more than 100 µM. `CC(C)OC(=O)N1CCC2(C1)C(=O)N(Cc1nc3cc(Br)ccc3n1CCCCO)c1ccccc12` (stereo unspecified) came in with a CC50 at 120 h in data set [1] of more than 100 µM. In the case of `OCCCCn1c(Cn2ncc3ccccc32)nc2ccccc21`, the CC50 at 120 h in data set [1] was more than 100 µM. In the case of `OCCCCn1c(Cn2ncc3ccncc32)nc2ccccc21`, in data set [1], the cytotoxic concentration (CC50) at 120 h was more than 100 µM.

On to `N#Cc1cn(Cc2nc3ccccc3n2CCCCO)c2ccccc12`, for which, in data set [1], the CC50 at 120 h is more than 100 µM. Same read-out and setting: under `O=C1N(Cc2nc3ccccc3n2CCCCO)CN(c2ccccc2)C12CCNCC2` stands more than 100 µM; under `O=C1N(Cc2nc3cc(Br)ccc3n2CCCCO)c2ccccc2C12CSC2`, more than 100 µM; under `CN1CCC2(CC1)C(=O)N(Cc1nc3cc(Br)ccc3n1CCCCO)c1ccccc12`, more than 100 µM. Same read-out and setting: under `CS(=O)(=O)N1CC2(C1)C(=O)N(Cc1nc3cc(Br)ccc3n1CCCCO)c1ccccc12` stands more than 100 µM. As usually defined, the AUC(0-inf) is total exposure, with the tail of the curve extrapolated. Low values mean low exposure, high ones high exposure. As a reminder, the Tmax is the time at which the peak concentration occurs. A word on the half-life: it is how long it takes for the measured level to halve. Broadly, the Vd is the apparent volume that relates the amount in the body to the concentration in plasma or blood. A low value points to little distribution into tissue. The Cmax is the peak of the concentration-time curve. In general, clearance refers to a measure of how efficiently the substance is removed, as volume per time. Read a low clearance as a low capacity for elimination. As a reminder, the bioavailability is dose-corrected exposure relative to a reference, in per cent. As for `CC(C)OC(=O)N1CC2(C1)C(=O)N(Cc1nc3cc(Br)ccc3n1CCCCO)c1ccccc12`, the Activity result in data set [2] is “Dose-dependent effect”. The “log(activity)” value in data set [3] came to 1.64; in [5], 2.05; in data set [6], 3.91. The area under the curve AUC(0-inf) in data set [4] is 8.08 µM·h; in data set [10], 1.13 µM·h. In data set [1], the 50% cytotoxic concentration (CC50) at 120 h was more than 100 µM. The time of peak concentration (Tmax) in data set [7] stood at 15 min. Further, in data set [8], the half-life was 84 min. In data set [9], this compound returned a Vd of 1.6 L/kg. This compound also showed a maximum concentration (Cmax) in [11] of 3.32 µM. The clearance in data set [12] amounted to 28 mL/min/kg. In data set [13], this compound came in with a bioavailability of 71%. `OCCCCn1c(Cn2c3c(c4ccccc42)CCNC3)nc2ccccc21` registered a 50% cytotoxic concentration (CC50) at 120 h in data set [1] of more than 100 µM. The same measure, in the same setting: under `O=C1N(Cc2nc3cc(Br)ccc3n2CCCCO)c2ccccc2C12CC2` stands more than 100 µM; under `O=C1N(Cc2nc3cc(Br)ccc3n2CCCCO)c2ccccc2C12CNC2`, more than 100 µM. `CN1CC2(C1)C(=O)N(Cc1nc3cc(Br)ccc3n1CCCCO)c1ccccc12` returned a CC50 at 120 h in data set [1] of more than 100 µM. For the compound `Cc1nn(Cc2nc3ccccc3n2CCCCO)c2ccccc12`, the CC50 at 120 h in data set [1] is more than 100 µM. Turning to `O=C1N(Cc2nc3cc(Br)ccc3n2CCCCO)c2ccccc2C12CS(=O)(=O)C2`, the half-maximal cytotoxic concentration (CC50) at 120 h in [1] is more than 100 µM. Regarding `Cc1ccc2c(c1)nc(CN1C(=O)C3(CC3)c3ccccc31)n2CCCCO`, the 50% cytotoxic concentration (CC50) at 120 h in [1] is more than 100 µM. Regarding `O=C1N(Cc2nc3ccccc3n2CCCCO)c2cnccc2C12CC2`, the CC50 at 120 h in data set [1] is more than 100 µM. In data set [1], `OCCCCn1c(Cn2c(C(F)(F)F)nc3ccccc32)nc2ccccc21` had a cytotoxic concentration (CC50) at 120 h of more than 100 µM. Still for that read-out and setting: with `Cc1nn(Cc2nc3ccccc3n2CCCCO)c2c1CCCC2` the figure was more than 100 µM; with `O=C1N(Cc2nc3cc(Br)ccc3n2CCCCO)c2ccccc2C12CCN(C1COC1)CC2`, more than 100 µM. On the same count and under the same terms, under `NCc1ccc2c(c1)nc(CN1C(=O)C3(CC3)c3ccccc31)n2CCCCO` stands more than 100 µM.

Regarding `O=C1N(Cc2nc3cc(F)ccc3n2CCCCO)c2ccccc2C12CC2`, the CC50 at 120 h in [1] was more than 100 µM.

Compound `N#Cc1ccc2c(c1)nc(CN1C(=O)C3(CC3)c3ccccc31)n2CCCCO` returned a CC50 at 120 h in data set [1] of more than 100 µM. Take `CN1CCOC2(C1)C(=O)N(Cc1nc3cc(Br)ccc3n1CCCCO)c1ccccc12` (stereo unspecified): the CC50 at 120 h in data set [1] was more than 100 µM. In data set [1], `O=C1N(Cc2nc3ccccc3n2CCCCO)c2cc(F)ccc2C12CC2` registered a cytotoxic concentration (CC50) at 120 h of more than 100 µM. Still for that read-out and setting: under `Cc1cc(=O)n(Cc2nc3ccccc3n2CCCCO)c2ccccc12` stands more than 100 µM; under `Cc1c2c(nn1Cc1nc3ccccc3n1CCCCO)CCCC2`, more than 100 µM.

In turn, `OCCCCn1c(Cn2ccc3ccncc32)nc2ccccc21` registered a CC50 at 120 h in data set [1] of more than 100 µM.

In data set [1], `O=C1N(Cc2nc3cc(Br)ccc3n2CCCCO)c2ccccc2C12CCOC2` (stereo unspecified) came in with a CC50 at 120 h of more than 100 µM. On the same count and under the same terms, with `O=C1N(Cc2nc3ccccc3n2CCCCO)c2ccccc2C12CC2` the figure was more than 100 µM.

For the compound `OCCCCn1c(Cn2c(-c3cscn3)nc3ccccc32)nc2ccccc21`, the CC50 at 120 h in [1] is more than 100 µM. `CC1CC(=O)N(Cc2nc3ccccc3n2CCCCO)c2ccccc2N1` (stereo unspecified) showed a CC50 at 120 h in [1] of more than 100 µM.

As for `CS(=O)(=O)N1CCC2(C1)C(=O)N(Cc1nc3cc(Br)ccc3n1CCCCO)c1ccccc12` (stereo unspecified), the half-maximal cytotoxic concentration (CC50) at 120 h in data set [1] was more than 100 µM. The same measure, in the same setting: with `O=C1N(Cc2nc3cc(C4CCCCC4)ccc3n2CCCCO)c2ccccc2C12CC2` the figure was more than 100 µM; with `Cc1nc(=O)n(Cc2nc3ccccc3n2CCCCO)c2ccccc12`, more than 100 µM; with `O=C1N(Cc2nc3cc(I)ccc3n2CCCCO)c2ccccc2C12CC2`, more than 100 µM. Still for that read-out and setting: with `O=C1N(Cc2nc3cc(Br)ccc3n2CCCCO)c2ccccc2C12CCOCC2` the figure was more than 100 µM; with `CC(C)C(=O)N1CCC2(C1)C(=O)N(Cc1nc3cc(Br)ccc3n1CCCCO)c1ccccc12` (stereo unspecified), more than 100 µM.
